Source: ChEMBL document CHEMBL5550161, “Discovery of novel small molecules targeting the USP21/JAK2/STAT3 axis for the treatment of triple-negative breast cancer” (Eur J Med Chem, 2024)
Active and inactive are the calls of the source. The rule behind the calls is not given here.

Tests used:
[1] = test system: HCC1806; experiment: Induction of apoptosis in human HCC1806 cells assessed as late apoptotic cells at 0.4 uM incubated for 24 hrs by Annexin V-FITC/PI staining based flow cytometry (reference value: 0.23 %); format: functional
[2] = test system: HCC1806; experiment: Induction of apoptosis in human HCC1806 cells assessed as decrease in JAK2 level by Western blot analysis; format: functional, cell-based; settings: dose 0.1-0.4 µM
[3] = test system: HCC1806; experiment: Induction of apoptosis in human HCC1806 cells assessed as decrease in JAK1 level by Western blot analysis; format: functional, cell-based; settings: dose 0.1-0.4 µM
[4] = test system: HCC1806; experiment: Induction of apoptosis in human HCC1806 cells assessed as necrotic cells at 0.1 uM incubated for 24 hrs by Annexin V-FITC/PI staining based flow cytometry (reference value: 0.15 %); format: functional
[5] = test system: Hs-578T; experiment: Anti-proliferative activity against human Hs-578T cells assessed as cell growth inhibition incubated for 72 hrs by MTT assay; format: functional, cell-based
[6] = test system: MDA-MB-231; experiment: Induction of apoptosis in human MDA-MB-231 cells assessed as necrotic cells at 0.2 uM incubated for 24 hrs by Annexin V-FITC/PI staining based flow cytometry (reference value: 0.07 %); format: functional
[7] = test system: MDA-MB-231; experiment: Inhibition of cell invasion in human MDA-MB-231 cells; format: functional, cell-based; settings: dose 0.05-2 µM
[8] = test system: HCC1806; experiment: Effect on UCHL3 level in human HCC1806 cells at 0.1 to 0.4 uM incubated for 24 hrs by Western blot analysis; format: functional, cell-based; settings: dose 0.1-0.4 µM
[9] = test system: MDA-MB-231; experiment: Induction of apoptosis in human MDA-MB-231 cells assessed as decrease in STAT3 level by Western blot analysis; format: functional, cell-based; settings: dose 0.1-0.4 µM
[10] = test system: MDA-MB-231; experiment: Induction of apoptosis in human MDA-MB-231 cells assessed as late apoptotic cells at 1.6 uM incubated for 24 hrs by Annexin V-FITC/PI staining based flow cytometry (reference value: 1.23 %); format: functional
[11] = test system: MDA-MB-231; experiment: Anti-proliferative activity against human MDA-MB-231 cells assessed as cell survival; format: functional; settings: dose < 0.4 µM; time 24 hrs
[12] = test system: HCC1806; experiment: Induction of apoptosis in human HCC1806 cells assessed as early apoptotic cells at 1.6 uM incubated for 24 hrs by Annexin V-FITC/PI staining based flow cytometry (reference value: 0.67 %); format: functional
[13] = test system: HCC1806; experiment: Inhibition of colony formation in human HCC1806 cells at 0.05 uM measured after 7 days; format: functional, cell-based; settings: time 7.0 day
[14] = test system: MDA-MB-231; experiment: Induction of apoptosis in human MDA-MB-231 cells assessed as early apoptotic cells at 0.4 uM incubated for 24 hrs by Annexin V-FITC/PI staining based flow cytometry (reference value: 1.16 %); format: functional
[15] = test system: HCC1806; experiment: Induction of apoptosis in human HCC1806 cells assessed as early apoptotic cells at 0.4 uM incubated for 24 hrs by Annexin V-FITC/PI staining based flow cytometry (reference value: 0.67 %); format: functional
[16] = test system: MDA-MB-231; experiment: Induction of apoptosis in human MDA-MB-231 cells assessed as necrotic cells at 0.4 uM incubated for 24 hrs by Annexin V-FITC/PI staining based flow cytometry (reference value: 0.07 %); format: functional
[17] = test system: HCC1806; experiment: Induction of apoptosis in human HCC1806 cells assessed as necrotic cells at 0.8 uM incubated for 24 hrs by Annexin V-FITC/PI staining based flow cytometry (reference value: 0.15 %); format: functional
[18] = test system: HCC1806; experiment: Anti-proliferative activity against human HCC1806 cells assessed as reduction in EdU-positive cells at 0.2 uM; format: functional, cell-based
[19] = test system: HCC1806; experiment: Induction of apoptosis in human HCC1806 cells assessed as decrease in STAT3 level by Western blot analysis; format: functional, cell-based; settings: dose 0.1-0.4 µM
[20] = test system: HCC1806; experiment: Induction of apoptosis in human HCC1806 cells assessed as early apoptotic cells at 0.8 uM incubated for 24 hrs by Annexin V-FITC/PI staining based flow cytometry (reference value: 0.67 %); format: functional
[21] = test system: HCC1806; experiment: Inhibition of cell invasion in human HCC1806 cells; format: functional, cell-based; settings: dose 0.05-2 µM
[22] = test system: HCC1806; experiment: Induction of apoptosis in human HCC1806 cells assessed as ROS production rate at 0.2 uM incubated for 24 hrs by DCFH-DA staining based flow cytometry (reference value: 0.23 %); format: functional
[23] = test system: HCC1806; experiment: Induction of apoptosis in human HCC1806 cells assessed as necrotic cells at 0.2 uM incubated for 24 hrs by Annexin V-FITC/PI staining based flow cytometry (reference value: 0.15 %); format: functional
[24] = target: Tyrosine-protein kinase JAK2 (Homo sapiens, UniProt O60674); experiment: Induction of JAK2 degradation in Carfilzomib-treated human HCC1806 cells at 0.4 uM incubated for 24 hrs by Western blot analysis; format: cell-based
[25] = test system: MDA-MB-231; experiment: Induction of apoptosis in human MDA-MB-231 cells assessed as viable cells at 1.6 uM incubated for 24 hrs by Annexin V-FITC/PI staining based flow cytometry (reference value: 97.54 %); format: functional; settings: read-out: Activity
[26] = test system: MDA-MB-231; experiment: Induction of apoptosis in human MDA-MB-231 cells assessed as viable cells at 0.8 uM incubated for 24 hrs by Annexin V-FITC/PI staining based flow cytometry (reference value: 97.54 %); format: functional; settings: read-out: Activity

Chain of Tyrosine-protein kinase JAK2 (O60674 whole entry): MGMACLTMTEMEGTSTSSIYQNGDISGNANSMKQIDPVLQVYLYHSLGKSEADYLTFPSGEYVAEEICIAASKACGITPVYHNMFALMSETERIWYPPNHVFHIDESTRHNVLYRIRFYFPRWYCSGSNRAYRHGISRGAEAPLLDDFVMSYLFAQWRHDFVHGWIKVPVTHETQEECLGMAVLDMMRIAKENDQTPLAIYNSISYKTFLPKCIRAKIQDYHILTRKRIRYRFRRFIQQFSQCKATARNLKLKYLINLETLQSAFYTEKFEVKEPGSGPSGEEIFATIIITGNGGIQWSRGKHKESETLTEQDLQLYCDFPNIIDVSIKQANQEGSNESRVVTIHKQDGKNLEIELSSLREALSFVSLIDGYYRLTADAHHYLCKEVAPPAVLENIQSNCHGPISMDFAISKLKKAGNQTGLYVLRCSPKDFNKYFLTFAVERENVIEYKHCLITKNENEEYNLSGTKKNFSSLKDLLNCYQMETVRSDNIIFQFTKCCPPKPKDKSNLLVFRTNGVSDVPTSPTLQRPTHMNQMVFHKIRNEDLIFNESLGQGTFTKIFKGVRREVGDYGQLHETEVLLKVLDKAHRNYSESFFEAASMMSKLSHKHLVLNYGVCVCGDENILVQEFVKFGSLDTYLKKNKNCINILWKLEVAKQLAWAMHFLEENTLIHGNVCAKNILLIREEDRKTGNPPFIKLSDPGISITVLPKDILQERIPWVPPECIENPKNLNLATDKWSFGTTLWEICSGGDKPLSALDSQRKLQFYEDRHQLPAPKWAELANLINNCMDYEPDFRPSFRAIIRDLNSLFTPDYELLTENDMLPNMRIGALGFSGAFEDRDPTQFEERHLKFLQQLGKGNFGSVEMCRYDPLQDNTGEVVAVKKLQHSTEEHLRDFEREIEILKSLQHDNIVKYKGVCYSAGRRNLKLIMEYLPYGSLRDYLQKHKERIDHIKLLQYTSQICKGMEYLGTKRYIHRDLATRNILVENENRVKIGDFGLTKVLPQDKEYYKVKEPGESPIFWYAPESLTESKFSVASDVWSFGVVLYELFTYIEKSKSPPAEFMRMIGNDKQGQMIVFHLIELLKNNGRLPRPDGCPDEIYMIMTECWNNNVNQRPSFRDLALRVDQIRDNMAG

For `COc1cc(Nc2cc(F)ccc2C(=O)NCCc2c[nH]c3c(F)ccc(F)c23)cc(OC)c1OC`, the Activity [1] was 0.76%, the Activity [2] was “Active” and the Activity [3] was “Active”. It also gave an Activity [4] of 0.11%, an IC50 [5] of 590 nM and an Activity [6] of 0.19%. For the same compound, the inhibition [7] was “Active”, the Activity [8] was “inactive” and the Activity [9] was “Active”. The Activity [10] was 4.95%, the Survival [11] was greater than 80% and the Activity [12] was 4.81%. For the same compound, the inhibition [13] was “Active”, the Activity [14] was 2.31% and the Activity [15] was 2.94%. For the same compound, the Activity [16] was 0.14%, the Activity [17] was 0.29% and the Activity [18] was “Active”. The Activity [19] was “Active”, the Activity [20] was 4.23% and the inhibition [21] was “Active”. For the same compound, the Activity [22] was 2.3%, the Activity [23] was 0.33% and the Activity [24] was “Active”. The viability at 1.6 µM [25] was 87.4% and the viability at 0.8 µM [26] was 94.6%.
